Assay results from publication PMC11440035, “Interaction of myricetin, ampelopsin (dihydromyricetin), and their sulfate metabolites with serum albumin, cytochrome P450 (CYP2C9, 2C19, and 3A4) enzymes, and organic anion‐transporting polypeptides (OATP1B1 and OATP2B1)” (Pharmacology Research & Perspectives, 2024).
Where “and” joins values, the source holds several entries; their conditions need not be identical. Equal entries are not always repeated. Where two headings read alike, the source gives them in different places.

Tests used:
[1] = biological target: T1, OATP1B1 (Homo sapiens, UniProt Q9Y6L6); test: Inhibition of OATP1B1-mediated disulfopyrene uptake in A431 cells; format: cell-based; conditions: for decrease in the transport activity of OATP1B1 / inhibition of OATP1B1 in words: 25 μM flavonoid; for IC50: disulfopyrene 10 μM, 10 min, HBSS pH 7.4, A431-OATP1B1 cells
T1 construct: expressed in transfected cells; host or cells: A431
T1 sequence (Q9Y6L6 1-691): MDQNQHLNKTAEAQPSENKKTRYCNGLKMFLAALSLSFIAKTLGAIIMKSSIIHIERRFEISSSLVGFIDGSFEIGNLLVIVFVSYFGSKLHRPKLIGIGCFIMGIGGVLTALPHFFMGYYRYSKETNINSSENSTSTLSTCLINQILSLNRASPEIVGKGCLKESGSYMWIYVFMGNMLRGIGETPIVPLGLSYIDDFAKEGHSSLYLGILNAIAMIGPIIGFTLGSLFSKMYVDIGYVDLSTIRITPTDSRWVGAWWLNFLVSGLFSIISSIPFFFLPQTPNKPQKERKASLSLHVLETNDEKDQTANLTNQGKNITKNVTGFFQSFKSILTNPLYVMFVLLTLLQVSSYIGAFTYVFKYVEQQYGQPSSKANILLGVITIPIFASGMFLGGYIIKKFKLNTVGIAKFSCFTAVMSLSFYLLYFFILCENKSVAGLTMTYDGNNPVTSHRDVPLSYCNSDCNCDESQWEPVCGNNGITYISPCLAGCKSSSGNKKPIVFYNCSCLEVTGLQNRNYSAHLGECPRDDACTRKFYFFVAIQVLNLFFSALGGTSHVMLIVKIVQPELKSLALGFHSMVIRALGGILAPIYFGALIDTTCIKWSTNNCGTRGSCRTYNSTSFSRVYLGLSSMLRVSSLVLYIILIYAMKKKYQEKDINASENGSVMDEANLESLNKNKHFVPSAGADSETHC
Experimental: Human A431 cells overexpressing OATPs (OATP1B1 or OATP2B1) and their mock‐transfected controls were established earlier.[42], [43] The cells were maintained at 37°C with 5% CO2 in Dulbecco's Modified Eagle Medium (DMEM; Thermo Fischer Scientific, Waltham, MA, USA) supplemented with fetal bovine serum (10%), L‐glutamine (2 mM), penicillin (100 units/mL) and streptomycin (100 μg/mL).
The inhibitory impacts of MYR, AMP, and their sulfate metabolites on OATP1B1 and OATP2B1 were examined using the fluorescent dye substrates disulfopyrene (6,8‐dihydroxy‐1,3‐disulfopyrene) and pyranine, respectively.[42], [43] The day before the transport measurements, A431 cells overexpressing OATP1B1 or OATP2B1 (and their mock‐transfected controls) were seeded onto 96‐well plates at a density of 80 000 cells/well in DMEM (200 μL). Next day, the medium was removed, the cells were washed three times with PBS (pH 7.4, 200 μL) at room temperature, then the cells were pre‐incubated with 50 μL of Hank's Balanced Salt Solution (HBSS, pH 7.4; OATP1B1) or uptake buffer (pH 5.5; OATP2B1) for 5 min at 37°C with or without the flavonoids.[43] The transport reaction was started by adding 50 μL of disulfopyrene‐containing (final concentration: 10 μM) HBSS (OATP1B1 assay), or pyranine‐containing (final concentration: 20 μM) uptake buffer (OATP2B1 assay). After 10 min (OATP1B1) or 15 min (OATP2B1), the transport was stopped by removing the supernatant and washing the cells three times with ice‐cold PBS (200 μL). Then the fluorescence was measured in 200 μL of PBS using an Enspire plate reader (PerkinElmer, Waltham, MA, US) at excitation and emission wavelengths of 460/510 nm. OATP‐dependent transport was determined by subtracting the fluorescence detected in mock control cells from that of OATP‐expressing cells. Transport activity was measured based on the fluorescence signal in the absence of flavonoids (100%). IC50 values were calculated by sigmoidal fitting (Hill1), using the Origin software (version 2018, OriginLab Corporation, Northampton, MA, USA).

[2] = tested on: T2, CYP2C19; test: CYP2C19 assay ((S)‐mephenytoin hydroxylation), CypExpress human kit; format: biochemical; conditions: probe (S)‐mephenytoin, 20 μM flavonoid, 5 μM substrate, read-out: inhibitory action on CYP2C19‐mediated (S)‐mephenytoin hydroxylation
T2 construct: purchased Merck (Darmstadt, Germany)
Experimental: The isocratic elution was carried out with sodium acetate buffer (6.9 mM, pH 4) and acetonitrile (72:28 v/v%) as the mobile phase. (S)‐Mephenytoin and 4‐hydroxymephenytoin were detected at 230 nm.

[3] = set-up: method as in PMID 26032587; conditions: double‐blind randomized controlled clinical trial; cited from earlier work
[4] = cited from earlier work
[5] = tested on: OATP2B1; set-up: method as in PMID 37252098, PMID 28745105; conditions: cited from earlier work
[6] = tested on: OATP1B1; conditions: cited from earlier work
[7] = cited from earlier work; remark: listed apart in the source

**Q.** With O=C1c2c(O)cc(O)cc2OC(c2cc(O)c(OS(=O)(=O)O)c(O)c2)C1O (stereo not drawn) [A4′S, ampelopsin‐4′‐O‐sulfate] as the compound, how does the “decrease in the transport activity of OATP1B1” value [1] read?
**A.** ~70%

**Q.** Which results are given for O=C1c2c(O)cc(O)cc2O[C@H](c2cc(O)c(O)c(O)c2)[C@H]1O [AMP, ampelopsin]?
**A.** inhibition at 20 μM [2]: 5%; decrease in the transport activity of OATP1B1 [1]: approximately 40%; effect in patients with nonalcoholic fatty liver disease [3]: improved glucose and lipid metabolism; oral bioavailability ([4]; AMP, rat studies): approximately 4%; peak plasma concentrations of the aglycone ([4]; rats, peroral 100 mg/kg AMP): 300 to 500 nM

**Q.** What does the source list for O=c1c(O)c(-c2cc(O)c(O)c(OS(=O)(=O)O)c2)oc2cc(O)cc(O)c12 [M3′S, myricetin‐3′‐O‐sulfate]?
**A.** inhibition of OATP1B1 in words [1]: close to complete inhibition; IC50 [1]: 1.7 µM and 1.66 µM; inhibitory strength on OATP1B1 relative to MYR ([1]; ratio of IC50 values): four‐fold stronger

**Q.** With O=c1c(O)c(-c2cc(O)c(O)c(O)c2)oc2cc(O)cc(O)c12 [MYR, myricetin] as the compound, how does the “inhibition of OATP1B1 in words” value [1] read?
**A.** close to complete inhibition

**Q.** What about the IC50 [1] of the same compound?
**A.** 6.4 µM

**Q.** And the “inhibitory effects on OATP2B1‐dependent transport of 4′,5′‐dibromofluorescein and estrone 3‐sulfate” value [5]?
**A.** only weak inhibitory effects

**Q.** And the oral bioavailability ([4]; MYR, rats)?
**A.** less than 10%

**Q.** And the “peak plasma concentrations of MYR and its (sulfate and glucuronide) metabolites together” value ([4]; rats, per os 100 mg/kg MYR)?
**A.** 8 µM

**Q.** And the “decrease in the OATP1B1‐mediated transport of dehydroepiandrosterone sulfate and fluvastatin” value ([6]; 50 μM MYR)?
**A.** approximately 35%

**Q.** What about the IC50 ([6]; read-out: IC50, OATP1B1, 2′,7′‐dichlorofluorescein uptake) of the same compound?
**A.** 5.8 µM

**Q.** And the “effect on plasma levels of tolbutamide (CYP2C9 substrate) and midazolam (CYP3A4 substrate)” value ([7]; rat experiment)?
**A.** increased the plasma levels of tolbutamide

**Q.** And the “effect of peroral co‐administration on docetaxel pharmacokinetics” value ([7]; rat study)?
**A.** increased the oral bioavailability and peak plasma concentration of the drug
